Results taken from PubChem BioAssay AID1918936 (Molecular Pharmacology Branch, DTP, NCI, 2023).

System: 349418-098-R-PDC complex spheroid viability
Test: Anticancer human tumor 349418-098-R-PDC patient-derived lung adenocarcinoma cell line growth inhibition
Details: for IC50: curve of first compound; for viability, T/C: stronger effect = lower value
Procedure, shortened: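 Multicellular complex spheroids of tumor cells with human endothelial cells (HUVEC) and mesenchymal stem cells; the LSD1 inhibitor iadademstat was combined with standard-of-care or investigational agents. Top concentration at or near clinical Cmax, half-log dilutions; final DMSO ≤0.25%.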

[1] = second compound 0.1 µM, first compound 0.0316 µM
[2] = second compound 0.1 µM, first compound 0.1 µM
[3] = second compound 0.1 µM, first compound 0.316 µM
[4] = second compound 0.1 µM, first compound 1 µM
[5] = second compound 0.1 µM, first compound 3.16 µM
[6] = second compound 0.1 µM, first compound 10 µM
[7] = second compound 0.316 µM, first compound 0.0316 µM
[8] = second compound 0.316 µM, first compound 0.1 µM
[9] = second compound 0.316 µM, first compound 0.316 µM
[10] = second compound 0.316 µM, first compound 1 µM
[11] = second compound 0.316 µM, first compound 3.16 µM
[12] = second compound 0.316 µM, first compound 10 µM
[13] = second compound 1 µM, first compound 0.0316 µM
[14] = second compound 1 µM, first compound 0.1 µM
[15] = second compound 1 µM, first compound 0.316 µM
[16] = second compound 1 µM, first compound 1 µM
[17] = second compound 1 µM, first compound 3.16 µM
[18] = second compound 1 µM, first compound 10 µM
[19] = second compound 3.16 µM, first compound 0.0316 µM
[20] = second compound 3.16 µM, first compound 0.1 µM
[21] = second compound 3.16 µM, first compound 0.316 µM
[22] = second compound 3.16 µM, first compound 1 µM
[23] = second compound 3.16 µM, first compound 3.16 µM
[24] = second compound 3.16 µM, first compound 10 µM
[25] = second compound 10 µM, first compound 0.0316 µM
[26] = second compound 10 µM, first compound 0.1 µM
[27] = second compound 10 µM, first compound 0.316 µM
[28] = second compound 10 µM, first compound 1 µM
[29] = second compound 10 µM, first compound 3.16 µM
[30] = second compound 10 µM, first compound 10 µM
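Also: spheroids exposed to agents for seven days before readout.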
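For viability, T/C in this document: 100% = DMSO vehicle control wells.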

| Structure (SMILES) | IC50 (second compound 0.1 µM) [µM] | IC50 (second compound 0.316 µM) [µM] | IC50 (second compound 1 µM) [µM] | IC50 (second compound 3.16 µM) [µM] | IC50 (second compound 10 µM) [µM] | viability, T/C [1] [%] | viability, T/C [2] [%] | viability, T/C [3] [%] | viability, T/C [4] [%] | viability, T/C [5] [%] | viability, T/C [6] [%] | viability, T/C [7] [%] | viability, T/C [8] [%] | viability, T/C [9] [%] | viability, T/C [10] [%] | viability, T/C [11] [%] | viability, T/C [12] [%] | viability, T/C [13] [%] | viability, T/C [14] [%] | viability, T/C [15] [%] | other results |
| --- | --- | --- | --- | --- | --- | --- | --- | --- | --- | --- | --- | --- | --- | --- | --- | --- | --- | --- | --- | --- | --- |
| CC1(C)CCC(CN2CCN(c3ccc(C(=O)NS(=O)(=O)c4ccc(NCC5CCOCC5)c([N+](=O)[O-])c4)c(Oc4cnc5[nH]ccc5c4)c3)CC2)=C(c2ccc(Cl)cc2)C1 + NC1CCC(NC2CC2c2ccccc2)CC1 | 4.25 | 4.54 | 4.3 | 4.55 | 4.24 | 110 | 110 | 99.3 | 96.3 | 62.5 | 11.8 | 115 | 105 | 103 | 103 | 67.9 | 11.7 | 108 | 111 | 105 | viability, T/C [16]: 96.1%; viability, T/C [17]: 64.4%; viability, T/C [18]: 10.4%; viability, T/C [19]: 103%; viability, T/C [20]: 101%; viability, T/C [21]: 104%; viability, T/C [22]: 94.1%; viability, T/C [23]: 67.7%; viability, T/C [24]: 12%; viability, T/C [25]: 62.9%; viability, T/C [26]: 81.2%; viability, T/C [27]: 91%; viability, T/C [28]: 87.4%; viability, T/C [29]: 63%; viability, T/C [30]: 11.9% |
| CC1COCCN1c1cc(C2(S(C)(=N)=O)CC2)nc(-c2ccnc3[nH]ccc23)n1 (stereo not given) + NC1CCC(NC2CC2c2ccccc2)CC1 | 0.371 | 0.508 | 0.487 | 0.361 | 0.433 | 115 | 115 | 55.5 | 16.1 | 11 | 8.02 | 120 | 101 | 72.5 | 19.6 | 9.52 | 8.34 | 114 | 104 | 68.6 | viability, T/C [16]: 19.2%; viability, T/C [17]: 10.2%; viability, T/C [18]: 7.6%; viability, T/C [19]: 116%; viability, T/C [20]: 113%; viability, T/C [21]: 53.6%; viability, T/C [22]: 18.1%; viability, T/C [23]: 10.3%; viability, T/C [24]: 7.61%; viability, T/C [25]: 107%; viability, T/C [26]: 87.3%; viability, T/C [27]: 65.7%; viability, T/C [28]: 15.8%; viability, T/C [29]: 9.23%; viability, T/C [30]: 5.82% |
